Experiments:
Test in all cases: relative viability (nuclei count vs DMSO), 5 days (fraction); higher = more cells survive
[1] = compound: C1CSC2=C(C(=O)N1)SC3=C2C=C(C=C3)O [kb NB 142-70] + Nc1ncn([C@H]2C[C@H](O)[C@@H](CO)O2)c(=O)n1 [Decitabine] (partner 2 µM)
Outline: (§1)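 After 5 days of treatment, lung cancer cells in 1536-well plates were fixed and stained in a single step (final 0.05% Triton X-100, 1% formaldehyde, 1 ug/ml Hoechst) and their nuclei counted on 4× images. Treatment had been applied by pin tool the day after seeding as one drug alone or as a fixed anchor-drug dose with five library-drug doses (not always all listed) in √10 steps. Relative viability is the nuclei count of treated wells divided by that of vehicle wells, and values are medians of duplicate plates.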

[2] = compound: NCC(=O)Nc1ccc(-n2nc(C(F)(F)F)cc2-c2ccc3c(ccc4ccccc43)c2)cc1 + COc1cccc2cc(-c3nc([C@H]4CC[C@H](C(=O)O)CC4)n4ncnc(N)c34)[nH]c12 [OSI-027] (partner 0.5 µM)
Outline: as §1

[3] = compound: NCC(=O)Nc1ccc(-n2nc(C(F)(F)F)cc2-c2ccc3c(ccc4ccccc43)c2)cc1 + C[C@@H](Oc1cc(-c2cnn(C3CCNCC3)c2)cnc1N)c1c(Cl)ccc(F)c1Cl [Crizotinib] (partner 1 µM)
Outline: as §1

[4] = compound: NCC(=O)Nc1ccc(-n2nc(C(F)(F)F)cc2-c2ccc3c(ccc4ccccc43)c2)cc1 + O=C(c1cc(Cc2n[nH]c(=O)c3ccccc23)ccc1F)N1CCN(C(=O)C2CC2)CC1 [Olaparib] (partner 8 µM)
Outline: as §1

Cell Line	relative viability ([1]; first compound 0.1 µM)	relative viability ([1]; first compound 1 µM)	relative viability ([1]; first compound 3.162 µM)	relative viability ([2]; first compound 0.02 µM)	relative viability ([2]; first compound 0.06325 µM)	relative viability ([2]; first compound 0.2 µM)	relative viability ([2]; first compound 0.6325 µM)	relative viability ([2]; first compound 2 µM)	relative viability ([3]; first compound 0.02 µM)	relative viability ([3]; first compound 0.06325 µM)	relative viability ([3]; first compound 0.2 µM)	relative viability ([3]; first compound 0.6325 µM)	relative viability ([3]; first compound 2 µM)	relative viability ([4]; first compound 0.02 µM)	relative viability ([4]; first compound 0.06325 µM)	relative viability ([4]; first compound 0.2 µM)	relative viability ([4]; first compound 0.6325 µM)	relative viability ([4]; first compound 2 µM)
HOP-62	0.217	0.203	0.226	0.852	0.801	0.828	0.778	0.812	0.579	0.921	0.942	0.884	0.927	0.284	0.361	0.381	0.408	0.431
HARA	0.538	0.372	0.286	0.434	0.582	0.597	0.549	0.596	1.06	1.01	1.04	1.05	1.13	1.07	1.25	0.762	0.982	1.06
NCI-H838	0.431	0.454	0.427	0.406	0.461	0.428	0.425	0.469	0.856	0.903	0.879	0.813	0.761	0.853	0.766	0.815	0.592	0.572
NCI-H1755	0.7	0.729	0.727	0.711	0.68	0.685	0.71	0.759	0.955	0.863	0.904	0.891	0.862	0.898	0.854	0.933	0.914	0.923

From the supplement of paper PMC10307832
